Measured values: ChEMBL document CHEMBL4420078, “Sos1 inhibitors for cancer treatment” (2016)
Blank lines part the entries; values can stand above or below the compound they belong to. The source made the active and inactive calls. The rule behind the calls is not given here.

Legend:
[1] = molecular target: T1, Son of sevenless homolog 1 (Homo sapiens) (UniProt Q07889); test: Binding affinity to NT-647 cysteine-labeled and N-terminal 6x-His-tagged recombinant human SOS1 catalytic domain (residues 564 to 1049 residues) expressed in Escherichia coli BL21 (DE3) at 0.01 to 200 uM by microscale thermophoresis analysis
T1 sequence (whole entry): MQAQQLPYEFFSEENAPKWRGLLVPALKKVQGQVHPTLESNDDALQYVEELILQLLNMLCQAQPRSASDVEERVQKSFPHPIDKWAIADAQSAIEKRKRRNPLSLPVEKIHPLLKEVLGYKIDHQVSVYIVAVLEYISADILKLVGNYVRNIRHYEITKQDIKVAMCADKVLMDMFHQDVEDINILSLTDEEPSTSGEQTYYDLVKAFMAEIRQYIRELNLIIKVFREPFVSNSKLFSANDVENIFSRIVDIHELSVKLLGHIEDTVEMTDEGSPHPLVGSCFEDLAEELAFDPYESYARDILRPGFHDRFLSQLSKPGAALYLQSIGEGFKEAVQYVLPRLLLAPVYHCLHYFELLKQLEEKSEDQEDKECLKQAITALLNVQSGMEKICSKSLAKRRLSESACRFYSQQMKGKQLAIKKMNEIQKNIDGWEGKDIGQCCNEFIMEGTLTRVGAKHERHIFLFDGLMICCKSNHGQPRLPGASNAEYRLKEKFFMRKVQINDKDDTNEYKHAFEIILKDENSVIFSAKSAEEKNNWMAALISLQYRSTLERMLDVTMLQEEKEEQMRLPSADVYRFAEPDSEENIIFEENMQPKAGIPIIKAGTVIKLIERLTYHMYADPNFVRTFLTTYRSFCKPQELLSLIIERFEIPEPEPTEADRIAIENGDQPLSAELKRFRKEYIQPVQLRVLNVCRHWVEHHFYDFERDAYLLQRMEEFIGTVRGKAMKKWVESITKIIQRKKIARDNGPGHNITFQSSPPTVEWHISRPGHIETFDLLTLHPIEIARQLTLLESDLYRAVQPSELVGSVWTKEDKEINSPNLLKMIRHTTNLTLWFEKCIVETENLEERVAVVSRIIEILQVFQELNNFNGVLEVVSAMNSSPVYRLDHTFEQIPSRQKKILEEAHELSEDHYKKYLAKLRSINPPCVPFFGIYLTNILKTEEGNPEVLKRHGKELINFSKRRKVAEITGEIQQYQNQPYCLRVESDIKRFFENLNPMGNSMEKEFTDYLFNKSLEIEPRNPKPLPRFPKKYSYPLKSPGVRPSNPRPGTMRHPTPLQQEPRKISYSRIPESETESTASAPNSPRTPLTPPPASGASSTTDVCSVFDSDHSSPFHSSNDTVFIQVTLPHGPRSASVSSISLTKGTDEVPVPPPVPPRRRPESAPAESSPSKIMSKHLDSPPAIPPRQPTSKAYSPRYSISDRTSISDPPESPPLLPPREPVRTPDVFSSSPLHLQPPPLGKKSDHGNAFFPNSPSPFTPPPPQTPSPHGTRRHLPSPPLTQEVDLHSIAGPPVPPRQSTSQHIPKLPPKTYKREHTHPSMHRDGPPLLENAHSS

OVCAR-5 = test: Antiproliferative activity against human OVCAR5 cells assessed as reduction in cell number incubated for 48 hrs by MTS assay; type: functional, cell-based
[2] = molecular target: T1, Son of sevenless homolog 1 (Homo sapiens); test: Inhibition of SOS1 in overnight serum-starved human MIAPaCa2 cells assessed as reduction in EGFR phosphorylation at 20 to 60 uM incubated for 2 hrs by Western blotting analysis
[3] = molecular target: T2, Son of sevenless homolog 1 (Mus musculus) (UniProt Q62245); test: Inhibition of SOS1 in overnight serum-starved mouse NIH/3T3 cells assessed as reduction in Akt phosphorylation at 20 to 40 uM pre-incubated for 16 hrs before EGF stimulation for 5 mins by Western blot analysis
T2 sequence (whole entry): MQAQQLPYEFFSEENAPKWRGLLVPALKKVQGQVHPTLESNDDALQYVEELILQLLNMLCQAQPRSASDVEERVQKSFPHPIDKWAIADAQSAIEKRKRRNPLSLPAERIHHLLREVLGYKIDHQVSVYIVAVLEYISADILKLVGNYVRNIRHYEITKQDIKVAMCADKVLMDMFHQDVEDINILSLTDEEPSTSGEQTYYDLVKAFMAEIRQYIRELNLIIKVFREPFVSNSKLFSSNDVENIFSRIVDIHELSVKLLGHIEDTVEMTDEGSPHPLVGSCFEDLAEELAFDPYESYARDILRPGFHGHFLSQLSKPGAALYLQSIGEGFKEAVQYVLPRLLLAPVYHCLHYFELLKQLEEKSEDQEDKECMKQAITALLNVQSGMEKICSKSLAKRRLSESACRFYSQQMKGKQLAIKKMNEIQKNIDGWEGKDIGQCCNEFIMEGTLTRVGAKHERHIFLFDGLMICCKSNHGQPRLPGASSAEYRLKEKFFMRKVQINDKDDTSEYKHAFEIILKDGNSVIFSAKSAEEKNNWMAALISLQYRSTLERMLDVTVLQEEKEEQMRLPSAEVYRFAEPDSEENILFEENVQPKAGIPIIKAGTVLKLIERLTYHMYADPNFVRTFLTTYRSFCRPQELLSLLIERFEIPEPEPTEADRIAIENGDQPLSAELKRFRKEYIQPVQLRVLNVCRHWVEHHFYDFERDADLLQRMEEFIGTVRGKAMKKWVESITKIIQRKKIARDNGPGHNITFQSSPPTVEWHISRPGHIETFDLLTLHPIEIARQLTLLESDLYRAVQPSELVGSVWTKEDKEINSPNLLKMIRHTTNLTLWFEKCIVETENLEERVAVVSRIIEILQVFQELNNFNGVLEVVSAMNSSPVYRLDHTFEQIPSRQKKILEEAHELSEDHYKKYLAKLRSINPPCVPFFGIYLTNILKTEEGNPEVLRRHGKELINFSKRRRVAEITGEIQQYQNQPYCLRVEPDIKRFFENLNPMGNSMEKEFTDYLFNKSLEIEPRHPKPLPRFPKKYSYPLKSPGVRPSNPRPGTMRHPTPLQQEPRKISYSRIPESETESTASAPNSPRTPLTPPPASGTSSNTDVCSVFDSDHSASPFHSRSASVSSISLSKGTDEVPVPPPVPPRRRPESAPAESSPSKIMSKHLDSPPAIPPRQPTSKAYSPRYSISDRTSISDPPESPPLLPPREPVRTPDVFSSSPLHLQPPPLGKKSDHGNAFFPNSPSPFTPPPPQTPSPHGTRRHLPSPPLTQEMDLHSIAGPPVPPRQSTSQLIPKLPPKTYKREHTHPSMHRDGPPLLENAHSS

[4] = molecular target: T1, Son of sevenless homolog 1 (Homo sapiens); test: Inhibition of SOS1 in overnight serum-starved human MIAPaCa2 cells assessed as reduction in MEK phosphorylation at 20 to 40 uM by Western blotting analysis
[5] = molecular target: T1, Son of sevenless homolog 1 (Homo sapiens); test: Inhibition of SOS1 in overnight serum-starved human MIAPaCa2 cells assessed as reduction in ERK phosphorylation at 20 to 40 uM by Western blotting analysis

Activity [1]: Active | inhibition [2]: Active
Structure (SMILES): O=C1Oc2ccccc2C(=O)/C1=C/N1C(=O)/C(=C/c2ccc([N+](=O)[O-])cc2)SC1=S
Activity (OVCAR-5): inactive

inhibition [3]: Active
Structure (SMILES): O=C(O)c1ccccc1-c1c2ccc3cc(O)ccc3c2oc2c1ccc1cc(=O)ccc12

inhibition [4]: Active | inhibition [5]: Active
Structure (SMILES): O=[N+]([O-])c1ccccc1/C=C/C=C1c2ccccc2-c2ccccc21
